Experimental data reported in patent US8772302B2, “GPR 119 agonists” (Cadila Healthcare Limited, priority 2009, dated 2014).
Like-named read-outs stand apart in the source and are kept apart here. One block for each compound: values may come before it.

Legend:
[1] = test system: Sprague Dawley rats; test: Feed intake in Sprague Dawley rats; assay type: in vivo, rat; details: cumulative feed intake vs vehicle; for inhibition in vivo at 25 mg/kg: Rattus norvegicus, ip
Source text: In Vivo Efficacy Studies: Feed Intake in Sprague Dawley Rats:
Sprague Dawley rats of 6-8 week age are used for this experiment they are kept for acclimatization in reversed light/dark cycle for 15 days. Animals will have free access to a standard chow diet and water during acclimatization period. After 15 days reversed light/dark cycle acclimatization animals are trained for fasting induced feed intake for 5 days till they show consistent feed intake. Grouping was done based on the monitored feed intake during the training days. On treatment day each group of animals are dosed with test compound or vehicle by appropriate routes of administration (orally or intraperitoneally). Exactly 30 min. after treatment, measured amount of standard chow diet is provided and recorded as O-min feed offered. Then subsequently 2, 4, 6 and 24 hour after O-min, feed intake is measured and the cumulative feed intakes are calculated. The change in cumulative feed intake as compared to vehicle treated control at each time point is calculated for test compound.

[2] = test system: C57/BL6 mice; test: Oral glucose tolerance test (OGTT) in C57/BL6 mice; assay type: in vivo, mouse; details: serum glucose AUC, single oral dose, glucose load 3 gm/kg
Description: Oral Glucose Tolerance Tests (OGTT) in C57/BL6 Mice:
C57/BL6 mice of 6-8 week age are used for this experiment. Animals are grouped based on non-fasting serum glucose levels and kept on fasting for overnight (day before OGTT). On the experiment day, […], 30 min post dosing animals are bled for basal glucose level estimation and at the same time glucose load (3 gm/kg) will be administered per orally. Blood is collected at time points corresponding to 20, 40, 60 and 120 min after glucose load administration. Serum is separated for determination of glucose levels and change in area under curve for glucose is calculated and provided in table 4 as % reduction in AUC.

[3] = biological target: T1, recombinant human GPR 119 receptor (Homo sapiens, UniProt Q8TDV5); test: cAMP assay in stable cell line expressing recombinant human GPR 119 receptor; assay type: cell-based; details: intracellular cAMP
T1 construct: expressed in transfected cells
T1 sequence (Q8TDV5 1-335): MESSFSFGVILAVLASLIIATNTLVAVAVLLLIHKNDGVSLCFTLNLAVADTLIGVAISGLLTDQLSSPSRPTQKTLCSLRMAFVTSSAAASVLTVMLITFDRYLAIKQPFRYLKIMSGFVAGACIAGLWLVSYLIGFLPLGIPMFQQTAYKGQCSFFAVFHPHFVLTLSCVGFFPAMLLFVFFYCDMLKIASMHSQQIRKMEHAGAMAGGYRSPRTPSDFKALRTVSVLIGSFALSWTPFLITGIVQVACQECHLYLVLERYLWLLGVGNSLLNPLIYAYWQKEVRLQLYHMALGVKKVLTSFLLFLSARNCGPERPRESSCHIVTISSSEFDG
Source text: cAMP assay: A stable cell line expressing recombinant human GPR 119 receptor was established and used to investigate the efficacy of the compounds of the invention based on the intracellular levels of cyclic AMP (cAMP) using commercially available cAMP kits. Compounds of the invention produced a concentration dependent increase in cAMP level and EC50 values of representative compounds were provided in table 1.

[4] = intraperitoneal, 25 mg/kg, 2 hour
[5] = intraperitoneal, 25 mg/kg, 4 hour
[6] = intraperitoneal, 25 mg/kg, 6 hour
[7] = intraperitoneal, 25 mg/kg, 24 hour

SMILES: Cc1c(Oc2ccc([C@H]3CO[S@@](=O)OC3)cc2)ncnc1OC1CCN(c2ncccn2)CC1 [Example 5, cis-5-(4-((5-methyl-6-((1-(pyrimidin-2-yl)piperidin-4-yl)oxy)pyrimidin-4-yl)oxy)phenyl)-1,3,2-dioxathiane 2-oxide]
- % reduction in food in take, 2 hour [1, 4]: 35%
- % reduction in food in take, 4 hour [1, 5]: 17%
- % reduction in food in take, 6 hour [1, 6]: 21%
- % reduction in food in take, 24 hour [1, 7]: 8%

SMILES: CC(C)(C)OC(=O)N1CCC(c2nc(COc3ccc(C4COS(=O)OC4)cc3)cs2)CC1 (stereo not drawn) [Example 18, trans-tert-butyl 4-(4-((4-(2-oxido-1,3,2-dioxathian-5-yl)phenoxy)methyl)thiazol-2-yl)piperidine-1-carboxylate]
- % reduction in AUC at 50 mg/kg [2]: 11%

SMILES: Cc1c(Oc2ccc([C@H]3CO[S@@](=O)OC3)cc2)ncnc1OC1CCN(C(=O)Nc2ccc(Cl)cc2Cl)CC1 [Example 45, cis-N-(2,4-dichlorophenyl)-4-((5-methyl-6-(4-(2-oxido-1,3,2-dioxathian-5-yl)phenoxy)pyrimidin-4-yl)oxy)piperidine-1-carboxamide]
- % reduction in food in take, 2 hour ([1]; oral, 50 mg/kg, 2 hour): 28%
- % reduction in food in take, 4 hour ([1]; oral, 50 mg/kg, 4 hour): 28%
- % reduction in food in take, 6 hour ([1]; oral, 50 mg/kg, 6 hour): 16%
- % reduction in food in take, 24 hour ([1]; oral, 50 mg/kg, 24 hour): 7%

SMILES: Cc1c(Oc2ccc(C[C@H]3CO[S@@](=O)OC3)cc2)ncnc1OC1CCN(c2nc(C(C)C)no2)CC1 [Example 29, cis-5-(4-((6-((1-(3-isopropyl-1,2,4-oxadiazol-5-yl)piperidin-4-yl)oxy)-5-methylpyrimidin-4-yl)oxy)benzyl)-1,3,2-dioxathiane 2-oxide]
- % reduction in food in take, 2 hour [1, 4]: 50%
- % reduction in food in take, 4 hour [1, 5]: 24%
- % reduction in food in take, 6 hour [1, 6]: 5%
- % reduction in food in take, 24 hour [1, 7]: 4%

SMILES: Cc1c(Oc2ccc([C@H]3CO[S@@](=O)OC3)cc2)ncnc1OC1CCN(C(=O)OC(C)C)CC1 [Example 47, cis-isopropyl 4-((5-methyl-6-(4-(2-oxido-1,3,2-dioxathian-5-yl)phenoxy)pyrimidin-4-yl)oxy)piperidine-1-carboxylate]
- % reduction in food in take, 2 hour ([1]; oral, 50 mg/kg, 2 hour): 23%
- % reduction in food in take, 4 hour ([1]; oral, 50 mg/kg, 4 hour): 16%
- % reduction in food in take, 6 hour ([1]; oral, 50 mg/kg, 6 hour): 3%
- % reduction in food in take, 24 hour ([1]; oral, 50 mg/kg, 24 hour): 3%

SMILES: CCc1cnc(N2CCC(Oc3ccc(C[C@H]4CO[S@](=O)OC4)cc3)CC2)nc1 [Example 60, trans-5-(4-((1-(5-ethylpyrimidin-2-yl)piperidin-4-yl)oxy)benzyl)-1,3,2-dioxathiane 2-oxide]
- % reduction in food in take, 2 hour ([1]; oral, 50 mg/kg, 2 hour): 39%
- % reduction in food in take, 4 hour ([1]; oral, 50 mg/kg, 4 hour): 31%
- % reduction in food in take, 6 hour ([1]; oral, 50 mg/kg, 6 hour): 24%
- % reduction in food in take, 24 hour ([1]; oral, 50 mg/kg, 24 hour): 5.3%

SMILES: Cc1c(Oc2ccc(C[C@H]3CO[S@@](=O)OC3)cc2Cl)ncnc1OC1CCN(C(=O)OC(C)(C)C)CC1 [Example 63, cis-tert-butyl 4-((6-(2-chloro-4-((2-oxido-1,3,2-dioxathian-5-yl)methyl)phenoxy)-5-methylpyrimidin-4-yl)oxy)piperidine-1-carboxylate]
- % reduction in food in take, 2 hour ([1]; oral, 50 mg/kg, 2 hour): 44%
- % reduction in food in take, 4 hour ([1]; oral, 50 mg/kg, 4 hour): 41%
- % reduction in food in take, 6 hour ([1]; oral, 50 mg/kg, 6 hour): 25%
- % reduction in food in take, 24 hour ([1]; oral, 50 mg/kg, 24 hour): 15%
- % reduction in AUC at 50 mg/kg [2]: 31%

- EC50 [3]: 4.2 nM
SMILES: Cc1c(Oc2ccc([C@H]3CO[S@@](=O)OC3)cc2)ncnc1OC1CCN(C(=O)OC(C)(C)C)CC1 [Example 15, cis-tert-butyl 4-((5-methyl-6-(4-(2-oxido-1,3,2-dioxathian-5-yl)phenoxy)pyrimidin-4-yl)oxy)piperidine-1-carboxylate]
- inhibition in vivo at 25 mg/kg ([1]; intraperitoneal, 25 mg/kg, 2 hour, read-out: % reduction in food in take, 2 hour): 47%
- inhibition in vivo at 25 mg/kg ([1]; intraperitoneal, 25 mg/kg, 4 hour, read-out: % reduction in food in take, 4 hour): 31%
- inhibition in vivo at 25 mg/kg ([1]; intraperitoneal, 25 mg/kg, 6 hour, read-out: % reduction in food in take, 6 hour): 28%
- inhibition in vivo at 25 mg/kg ([1]; intraperitoneal, 25 mg/kg, 24 hour, read-out: % reduction in food in take, 24 hour): 19%

- EC50 [3]: 94 nM
SMILES: CCOC(=O)N1CCC(Oc2ncnc(Oc3ccc(C[C@H]4CO[S@@](=O)OC4)cc3)c2C)CC1 [Example 39, cis-ethyl 4-((5-methyl-6-(4-((2-oxido-1,3,2-dioxathian-5-yl)methyl)phenoxy)pyrimidin-4-yl)oxy)piperidine-1-carboxylate]

SMILES: CC(C)(C)OC(=O)N1CCC(c2nc(COc3ccc(CC4COS(=O)OC4)cc3)cs2)CC1 (stereo not drawn) [Example 55, cis-tert-butyl 4-(4-((4-((2-oxido-1,3,2-dioxathian-5-yl)methyl)phenoxy)methyl)thiazol-2-yl)piperidine-1-carboxylate]
- % reduction in food in take, 2 hour ([1]; oral, 50 mg/kg, 2 hour): 33%
- % reduction in food in take, 4 hour ([1]; oral, 50 mg/kg, 4 hour): 5.3%

SMILES: Cc1c(Oc2ccc(C3COS(=O)OC3)cc2)ncnc1OC1CCN(C(=O)OC(C)C)CC1 (stereo not drawn) [Example 48, trans-isopropyl 4-((5-methyl-6-(4-(2-oxido-1,3,2-dioxathian-5-yl)phenoxy)pyrimidin-4-yl)oxy)piperidine-1-carboxylate]
- % reduction in food in take, 2 hour ([1]; oral, 50 mg/kg, 2 hour): 32%
- % reduction in food in take, 4 hour ([1]; oral, 50 mg/kg, 4 hour): 17%
- % reduction in food in take, 6 hour ([1]; oral, 50 mg/kg, 6 hour): 17%
- % reduction in food in take, 24 hour ([1]; oral, 50 mg/kg, 24 hour): 10%

SMILES: CC(C)(C)OC(=O)N1CCC(c2nc(COc3ccc([C@H]4CO[S@@](=O)OC4)cc3)cs2)CC1 [Example 17, cis-tert-butyl 4-(4-((4-(2-oxido-1,3,2-dioxathian-5-yl)phenoxy)methyl)thiazol-2-yl)piperidine-1-carboxylate]
- % reduction in food in take, 2 hour [1, 4]: 34%
- % reduction in food in take, 4 hour [1, 5]: 34%
- % reduction in food in take, 6 hour [1, 6]: 24%
- % reduction in food in take, 24 hour [1, 7]: 13%
- % reduction in AUC at 50 mg/kg [2]: 34%

SMILES: CCc1cnc(N2CCC(Oc3ccc(C[C@H]4CO[S@@](=O)OC4)cc3)CC2)nc1 [Example 59, cis-5-(4-((1-(5-ethylpyrimidin-2-yl)piperidin-4-yl)oxy)benzyl)-1,3,2-dioxathiane 2-oxide]
- % reduction in food in take, 2 hour ([1]; oral, 50 mg/kg, 2 hour): 23%
- % reduction in food in take, 4 hour ([1]; oral, 50 mg/kg, 4 hour): 21%
- % reduction in food in take, 6 hour ([1]; oral, 50 mg/kg, 6 hour): 15%
- % reduction in food in take, 24 hour ([1]; oral, 50 mg/kg, 24 hour): 11%

SMILES: CCc1cnc(N2CCC(Oc3ncnc(Oc4ccc(C[C@H]5CO[S@@](=O)OC5)cc4)c3C)CC2)nc1 [Example 31, cis-5-(4-((6-((1-(5-ethylpyrimidin-2-yl)piperidin-4-yl)oxy)-5-methylpyrimidin-4-yl)oxy)benzyl)-1,3,2-dioxathiane 2-oxide]
- % reduction in food in take, 2 hour [1, 4]: 28%
- % reduction in food in take, 4 hour [1, 5]: 34%
- % reduction in food in take, 6 hour [1, 6]: 28%
- % reduction in food in take, 24 hour [1, 7]: 9%

SMILES: Cc1c(Oc2ccc(C[C@H]3CO[S@](=O)OC3)cc2)ncnc1OC1CCN(c2nc(C(C)C)no2)CC1 [Example 30, trans-5-(4-((6-((1-(3-isopropyl-1,2,4-oxadiazol-5-yl)piperidin-4-yl)oxy)-5-methylpyrimidin-4-yl)oxy)benzyl)-1,3,2-dioxathiane 2-oxide]
- % reduction in food in take, 2 hour [1, 4]: 39%
- % reduction in food in take, 4 hour [1, 5]: 31%
- % reduction in food in take, 6 hour [1, 6]: 5%
- % reduction in food in take, 24 hour [1, 7]: 9%

SMILES: Cc1c(OCCCC2CCN(C(=O)OC(C)(C)C)CC2)ncnc1Oc1ccc(C2COS(=O)OC2)cc1 (stereo not drawn) [Example 20, cis-tert-butyl 4-(3-((5-methyl-6-(4-(2-oxido-1,3,2-dioxathian-5-yl)phenoxy)pyrimidin-4-yl)oxy)propyl)piperidine-1-carboxylate]
- % reduction in AUC at 50 mg/kg [2]: 25%
